Tests used:
human GPR139 receptor [1] = molecular target: T1, human GPR139 receptor (Homo sapiens, UniProt Q6DWJ6); assay: GPR139 Competition Binding (membrane-based, tritium-labeled ligand); settings: T-REx-CHO membranes with human GPR139; 6.5 nM tritium-labeled ligand; 11-point curve, 30 μM maximum concentration; read-out: GPR139 Binding Affinity (pKi) (converted)
T1 construct: expressed in transfected cells; host or cells: T-REx-CHO (Thermo Fisher Scientific), doxycycline-induced
T1 sequence (Q6DWJ6 1-353): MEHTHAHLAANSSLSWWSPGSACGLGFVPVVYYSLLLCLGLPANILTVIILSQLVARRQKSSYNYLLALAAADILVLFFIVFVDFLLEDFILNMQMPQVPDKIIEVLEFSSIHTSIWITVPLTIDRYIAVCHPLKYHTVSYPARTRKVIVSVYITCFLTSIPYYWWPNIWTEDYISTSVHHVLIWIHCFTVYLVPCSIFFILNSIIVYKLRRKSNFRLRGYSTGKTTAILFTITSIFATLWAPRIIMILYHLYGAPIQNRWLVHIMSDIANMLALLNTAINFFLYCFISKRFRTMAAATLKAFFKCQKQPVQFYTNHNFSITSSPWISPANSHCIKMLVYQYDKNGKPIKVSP
Outline: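 Membranes came from doxycycline-induced T-REx-CHO cells expressing human GPR139. They were incubated 20 min at room temperature with 6.5 nM tritiated ligand and compound (11 points, top 30 μM) in HEPES pH 7.3 buffer with MgCl2/CaCl2. Filter-bound counts gave Ki by four-parameter fit, reported as pKi.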

human GPR139 receptor [2] = molecular target: T1, human GPR139 receptor; assay: Measurement of GPR139 Activation Via Calcium Signaling (FLIPR, T-REx-CHO cells); type: cell-based; settings: T-REx-CHO cells stably expressing human GPR139, 11-point dose response, 10 μM maximum concentration, read-out: GPR139 Potency (pEC50) (converted)
Outline: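 T-REx-CHO cells stably carrying human GPR139 under tetracycline control, induced with 2 μg/mL doxycycline for 17 h at 37 °C, loaded 40 min with Calcium 5 dye plus probenecid in HBSS/HEPES pH 7.4. Agonist added as 11-point series (10 μM top); fluorescence read 1 min; pEC50 from four-parameter fit.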

| SMILES | Ki (human GPR139 receptor [1]) | EC50 (human GPR139 receptor [2]) |
| --- | --- | --- |
| Cc1ccc([C@H](C)NC(=O)Cn2ncc3c(C4CC4)nn(C)c3c2=O)c(F)c1 [Example 152, (S)-2-(3-cyclopropyl-1-methyl-7-oxo-1,7-dihydro-6H-pyrazolo[3,4-d]pyridazin-6-yl)-N-(1-(2-fluoro-4-methylphenyl)ethyl)acetamide] | 110 nM | 28.8 nM |
| Cc1nn(C2CC2)c2cnn(CC(=O)N[C@@H](C)c3ccc(Cl)cc3F)c(=O)c12 [Example 24, (S)—N-(1-(4-chloro-2-fluorophenyl)ethyl)-2-(1-cyclopropyl-3-methyl-4-oxo-1,4-dihydro-5H-pyrazolo[3,4-d]pyridazin-5-yl)acetamide] | 97.7 nM | 46.8 nM |
| Cc1ccc([C@H](C)NC(=O)Cn2nc(C3CC3)c3cnn(-c4ccccc4)c3c2=O)cc1 [Example 43, (S)-2-(4-cyclopropyl-7-oxo-1-phenyl-1,7-dihydro-6H-pyrazolo[3,4-d]pyridazin-6-yl)-N-(1-(p-tolyl)ethyl)acetamide] | 89.1 nM | 708 nM |
| Cc1nn(C2CC2)c2cnn(CC(=O)NC(C)c3ccc4c(c3)CCCO4)c(=O)c12 (stereo not drawn) [Example 104, N-(1-(chroman-6-yl)ethyl)-2-(1-cyclopropyl-3-methyl-4-oxo-1,4-dihydro-5H-pyrazolo[3,4-d]pyridazin-5-yl)acetamide] | 794 nM | 61.7 nM |
| Cc1nn(C2CC2)c2c(=O)n(CC(=O)N[C@@H](C)c3ccc(C(F)(F)F)cn3)ncc12 [Example 58, (S)-2-(1-cyclopropyl-3-methyl-7-oxo-1,7-dihydro-6H-pyrazolo[3,4-d]pyridazin-6-yl)-N-(1-(5-(trifluoromethyl)pyridin-2-yl)ethyl)acetamide] | 1350 nM | 74.1 nM |
| Cc1cc([C@H](C)NC(=O)Cn2ncc3c(c(C)nn3C3CC3)c2=O)ccc1F [Example 134, (S)-2-(1-cyclopropyl-3-methyl-4-oxo-1,4-dihydro-5H-pyrazolo[3,4-d]pyridazin-5-yl)-N-(1-(4-fluoro-3-methylphenyl)ethyl)acetamide] | 589 nM | 24 nM |
| COc1ccc([C@H](C)NC(=O)Cn2ncc3c(c(C)cn3C3CC3)c2=O)cc1 [Example 145, (S)-2-(1-cyclopropyl-3-methyl-4-oxo-1,4-dihydro-5H-pyrrolo[2,3-d]pyridazin-5-yl)-N-(1-(4-methoxyphenyl)ethyl)acetamide] | 89.1 nM | 29.5 nM |
| C[C@H](NC(=O)Cn1ncc2c(C3CC3)cn(C)c2c1=O)c1ccc(C(F)(F)F)cc1 [Example 159, (S)-2-(3-cyclopropyl-1-methyl-7-oxo-1,7-dihydro-6H-pyrrolo[2,3-d]pyridazin-6-yl)-N-(1-(4-(trifluoromethyl)phenyl)ethyl)acetamide] | 79.4 nM | 100 nM |
| COc1ccc([C@H](C)NC(=O)Cn2nc(C)c3c(c(C(C)C)nn3C)c2=O)cc1F [Example 10, (S)—N-(1-(3-fluoro-4-methoxyphenyl)ethyl)-2-(3-isopropyl-1,7-dimethyl-4-oxo-1H-pyrazolo[3,4-d]pyridazin-5(4H)-yl)acetamide] | 120 nM | 79.4 nM |
| Cc1ccc([C@H](C)NC(=O)Cn2nc(C)c3c(cnn3C)c2=O)c(F)c1 [Example 82] | 550 nM | 41.7 nM |
| Cc1nn(C(C)C)c2c(C)nn(CC(=O)N[C@@H](C)c3ccc(C(F)(F)F)cc3)c(=O)c12 [Example 56, (S)-2-(1-isopropyl-3,7-dimethyl-4-oxo-1,4-dihydro-5H-pyrazolo[3,4-d]pyridazin-5-yl)-N-(1-(4-(trifluoromethyl)phenyl)ethyl)acetamide] | 479 nM | 214 nM |
| Cc1ccc([C@H](C)NC(=O)Cn2nc(C)c3c(C)nn(C4CC4)c3c2=O)cc1 [Example 22, (S)-2-(1-cyclopropyl-3,4-dimethyl-7-oxo-1,7-dihydro-6H-pyrazolo[3,4-d]pyridazin-6-yl)-N-(1-(p-tolyl)ethyl)acetamide] | 9.12 nM | 105 nM |
| Cc1cc(C)c([C@H](C)NC(=O)Cn2ncc3c(c(C)cn3C3CC3)c2=O)c(C)c1 [Example 64, (S)-2-(1-cyclopropyl-3-methyl-4-oxo-1,4-dihydro-5H-pyrrolo[2,3-d]pyridazin-5-yl)-N-(1-mesitylethyl)acetamide] | 2.09 nM | 120 nM |
| Cc1nn(CC(=O)N[C@@H](C)c2ccc(C(F)(F)F)cc2)c(=O)c2cnn(C)c12 [Example 72, (S)-2-(1,7-dimethyl-4-oxo-1,4-dihydro-5H-pyrazolo[3,4-d]pyridazin-5-yl)-N-(1-(4-(trifluoromethyl)phenyl)ethyl)acetamide] | 1910 nM | 55 nM |
| Cc1nn(CC(=O)NC(C)c2ccc3c(c2)CCCO3)c(=O)c2c1c(C)nn2C1CC1 (stereo not drawn) [Example 61, N-(1-(chroman-6-yl)ethyl)-2-(1-cyclopropyl-3,4-dimethyl-7-oxo-1,7-dihydro-6H-pyrazolo[3,4-d]pyridazin-6-yl)acetamide] | 41.7 nM | 141 nM |
| Cc1nn(CC(=O)N[C@@H](C)c2ccc(OC(F)(F)F)cc2)c(=O)c2c1cnn2-c1ccccc1 [Example 5, (S)-2-(4-methyl-7-oxo-1-phenyl-1,7-dihydro-6H-pyrazolo[3,4-d]pyridazin-6-yl)-N-(1-(4-(trifluoromethoxy)phenyl)ethyl)acetamide] | 93.3 nM | 224 nM |
| COc1ccc([C@H](C)NC(=O)Cn2ncc3c(c(C4CC4)nn3C)c2=O)cc1 [Example 116, (S)-2-(3-cyclopropyl-1-methyl-4-oxo-1,4-dihydro-5H-pyrazolo[3,4-d]pyridazin-5-yl)-N-(1-(4-methoxyphenyl)ethyl)acetamide] | 339 nM | 74.1 nM |
| Cc1ccc([C@H](C)NC(=O)Cn2ncc3c(c(C4CC4)nn3C)c2=O)cc1 [Example 38, (S)-2-(3-cyclopropyl-1-methyl-4-oxo-1,4-dihydro-5H-pyrazolo[3,4-d]pyridazin-5-yl)-N-(1-(p-tolyl)ethyl)acetamide] | 72.4 nM | 55 nM |
| Cc1ccc([C@H](C)NC(=O)Cn2nc(C)c3c(ncn3C)c2=O)cc1 [Example 29, (S)-2-(1,7-dimethyl-4-oxo-1,4-dihydro-5H-imidazo[4,5-d]pyridazin-5-yl)-N-(1-(p-tolyl)ethyl)acetamide] | 30200 nM | 513 nM |
| Cc1nn(CC(=O)N[C@@H](C)c2ccc(OC(F)(F)F)cc2)c(=O)c2c(C3CC3)nn(C)c12 [Example 118, (S)-2-(3-cyclopropyl-1,7-dimethyl-4-oxo-1,4-dihydro-5H-pyrazolo[3,4-d]pyridazin-5-yl)-N-(1-(4-(trifluoromethoxy)phenyl)ethyl)acetamide] | 23.4 nM | 69.2 nM |
| Cc1nn(CC(=O)NC(C)c2ccc3c(c2)OCCO3)c(=O)c2c1c(C)nn2C1CC1 (stereo not drawn) [Example 105, 2-(1-cyclopropyl-3,4-dimethyl-7-oxo-1,7-dihydro-6H-pyrazolo[3,4-d]pyridazin-6-yl)-N-(1-(2,3-dihydrobenzo[b][1,4]dioxin-6-yl)ethyl)acetamide] | 97.7 nM | 107 nM |
| Cc1ccc([C@H](C)NC(=O)Cn2ncc3c(c(C(C)C)nn3C)c2=O)c(F)c1 [Example 49, (S)—N-(1-(2-fluoro-4-methylphenyl)ethyl)-2-(3-isopropyl-1-methyl-4-oxo-1,4-dihydro-5H-pyrazolo[3,4-d]pyridazin-5-yl)acetamide] | 22.9 nM | 49 nM |
| COc1cc(Cl)ccc1C[C@H](C)NC(=O)Cn1ncc2c(c(C)cn2C2CC2)c1=O [Example 67, (S)—N-(1-(4-chloro-2-methoxyphenyl)propan-2-yl)-2-(1-cyclopropyl-3-methyl-4-oxo-1,4-dihydro-5H-pyrrolo[2,3-d]pyridazin-5-yl)acetamide] | 3.89 nM | 85.1 nM |
| Cc1ccc([C@H](C)NC(=O)Cn2ncc3c(c(C)nn3C)c2=O)c(F)c1 [Example 99] | 95.5 nM | 123 nM |
| C[C@H](NC(=O)Cn1ncc2c(c(C3CC3)nn2C)c1=O)c1ccc(OC(F)(F)F)cc1 [Example 125, (S)-2-(3-cyclopropyl-1-methyl-4-oxo-1,4-dihydro-5H-pyrazolo[3,4-d]pyridazin-5-yl)-N-(1-(4-(trifluoromethoxy)phenyl)ethyl)acetamide] | 47.9 nM | 123 nM |
| COc1ccc([C@H](C)NC(=O)Cn2ncc3c(c(C)nn3C)c2=O)c(F)c1 [Example 19, (S)-2-(1,3-dimethyl-4-oxo-1,4-dihydro-5H-pyrazolo[3,4-d]pyridazin-5-yl)-N-(1-(2-fluoro-4-methoxyphenyl)ethyl)acetamide] | 1070 nM | 67.6 nM |
| Cc1nn(C)c2cnn(CC(=O)N[C@@H](C)c3c(F)cccc3F)c(=O)c12 [Example 126, (S)—N-(1-(2,6-difluorophenyl)ethyl)-2-(1,3-dimethyl-4-oxo-1,4-dihydro-5H-pyrazolo[3,4-d]pyridazin-5-yl)acetamide] | 955 nM | 324 nM |
